Data from PMC5406667, “Antiretroviral Activity Of a Novel Pyrimidyl-Di(Diazaspiroalkane) Derivative” (Acta Naturae, 2017).
“And” between values parts separate entries of the source, which are not always exact repeats. Identical values can stand only once. Like-named read-outs stand apart in the source and are kept apart here.

Experiments:
HIV-1 6S = test system: HIV-1 6S
Description: (§1) Our studies were carried out at the National Cancer Institute (National Cancer Institute, Bethesda, Maryland, USA). Antiviral activity was assessed using the XTT test with various concentrations of the compound and incubation of cells (CEM-SS, MT-2, MT-4) in the presence of serial dilutions of dispiropiperazine 2 (dissolved in dimethyl sulphoxide, DMSO) for 6 days at a temperature of 37°C and humidified atmosphere with 5% CO2, followed by addition of XTT reagents. The method is based on a spectrometric measurement of the level of formazan transformed by living cells from a water-soluble tetrazolium salt, XTT.
(§2) The following HIV strains were used: the reference HIV-1 IIIB strain; the AZT-sensitive HIV-1 6S, HIV- 1 RF strains; the drug-resistant HIV-1 N119 strains (resistant to nevirapine, Y181C mutation), HIV-1 DPS (resistant to diphenyl sulfone, Y181C mutation), and HIV-1 A-17 (resistant to nevirapine, K103N and Y181C mutations). We also used the HIV-2 ROD strain and simian immunodeficiency virus SIV MAC 251.

HIV-1 A-17 = conditions: for IC50: HIV-1 A-17 (resistant to nevirapine, K103N and Y181C), 6 days, XTT
Description: as §1, §2

HIV-1 DPS = conditions: MT-4 cells
Description: as §1, §2

HIV-1 IIIB = conditions: MT-4 cells
Description: as §1, §2

HIV-1 N119 = test system: HIV-1 N119
Description: as §1, §2

HIV-1 RF = conditions: CEM-SS cells
Description: as §1, §2

HIV-2 ROD = conditions: CEM-SS cells
Description: as §1, §2

SIV MAC 251 = conditions: SIV MAC 251, MT-4 cells
Description: as §1, §2

CEM-SS = conditions: read-out: CC50 (cytotoxic concentration), CEM-SS cells
Description: as §1

MT-2 = conditions: read-out: CC50 (cytotoxic concentration), MT-2 cells
Description: as §1

MT-4 = conditions: read-out: CC50 (cytotoxic concentration), MT-4 cells
Description: as §1

cellular HSPG = test system: cellular HSPG; design: method as in earlier work; conditions: prevents virus binding; cited from earlier work
herpes viruses = conditions: cited from earlier work
[1] = design: method as in PMID 15341064; conditions: degradation accompanied by the formation of nitric oxide; cited from earlier work

For “3,3’-(5-nitropyrimidine-4,6-diyl)bis-3,12-diaza-6,9-diazoniadispiro[ 5.2.5.2]hexadecane tetrachloride dihydrochloride [Compound 2]”, which IC50 (HIV-1 6S) is on record?
The IC50 was 1.37 µM and 1.4 µM.

And the “TI (CC50/IC50), therapeutic index” value (HIV-1 6S; HIV-1 6S, MT-2 cells)?
The value was 71.4.

What about the IC50 (HIV-1 A-17; MT-2 cells) of the same compound?
The IC50 was 4.7 µM.

And the IC50 (HIV-1 A-17; MT-4 cells)?
Its IC50 is 33.7 µM.

And the “TI (CC50/IC50), therapeutic index” value (HIV-1 A-17; HIV-1 A-17, MT-2 cells)?
The value was 16.7.

And the “TI (CC50/IC50), therapeutic index” value (HIV-1 A-17; HIV-1 A-17, MT-4 cells)?
The value was 5.9.

And the IC50 (HIV-1 DPS; HIV-1 DPS (resistant to diphenyl sulfone, Y181C), 6 days, XTT)?
Its IC50 is 1.17 µM and 1.2 µM.

And the “TI (CC50/IC50), therapeutic index” value (HIV-1 DPS; HIV-1 DPS)?
Its value is 170.0.

And the IC50 (HIV-1 IIIB; HIV-1 IIIB (reference strain), 6 days, XTT)?
The IC50 was 5.7 µM.

What about the “TI (CC50/IC50), therapeutic index” value (HIV-1 IIIB; HIV-1 IIIB) of the same compound?
Its value is 35.0.

What about the IC50 (HIV-1 N119; HIV-1 N119 (resistant to nevirapine, Y181C), MT-4 cells, 6 days, XTT) of the same compound?
The IC50 was 31.7 µM.

And the “TI (CC50/IC50), therapeutic index” value (HIV-1 N119; HIV-1 N119, MT-4 cells)?
Its value is 6.3.

And the IC50 (HIV-1 RF; HIV-1 RF (AZT-sensitive), 6 days, XTT)?
Its IC50 is 150 µM.

What about the “TI (CC50/IC50), therapeutic index” value (HIV-1 RF; HIV-1 RF) of the same compound?
Its value is 1.3.

What about the “TI (CC50/IC50), therapeutic index” value (HIV-2 ROD) of the same compound?
The value was 15.0.

And the IC50 (HIV-2 ROD; 6 days, XTT)?
The IC50 was 13.3 µM.

What about the “TI (CC50/IC50), therapeutic index” value (SIV MAC 251) of the same compound?
Its value is 31.5.

And the IC50 (SIV MAC 251; 6 days, XTT)?
Its IC50 is 6.3 µM.

And the CC50 (CEM-SS; HIV-1 RF experiment)?
Its CC50 is 197 µM.

What about the CC50 (CEM-SS; HIV-2 ROD experiment) of the same compound?
The CC50 was 200 µM.

What about the CC50 (MT-2; HIV-1 6S experiment) of the same compound?
Its CC50 is 98.2 µM.

And the CC50 (MT-2; HIV-1 A-17 experiment)?
The CC50 was 79.1 µM.

What about the CC50 (MT-4; HIV-1 A-17 experiment) of the same compound?
Its CC50 is 200 µM.

And the CC50 (MT-4; HIV-1 DPS experiment)?
The CC50 was 200 µM.

What about the CC50 (MT-4; HIV-1 IIIB experiment) of the same compound?
The CC50 was 200 µM.

And the CC50 (MT-4; HIV-1 N119 experiment)?
Its CC50 is 200 µM.

And the CC50 (MT-4; SIV MAC 251 experiment)?
The CC50 was 200 µM.

With [O-][n+]1onc2ncnc(N3CC[N+]4(CC3)CC[N+]3(CCN(c5ncnc6no[n+]([O-])c56)CC3)CC4)c21 [Compound 1, N,N’-(bis-1-oxido[1,2,5]oxadiazolo [3,4d]-nitropyrimidine-7-il)-3,12-diaza-6,9-diazonia(5,2,5,2)dispirohexane dichloride] as the compound, how does the “Binding to cellular HSPG” value (cellular HSPG) read?
Its value is “effective reversible binding to cellular HSPG”.

And the “Inhibition of replication in herpes viruses” value (herpes viruses)?
Its value is “inhibits replication in herpes viruses”.

What about the Metabolic stability [1] of the same compound?
Its Metabolic stability is “metabolic instability”.
